Experimental data as given in patent publication US20210100246A1, “PYRIDYL-FORMAMIDINES HAVING A FUNGICIDAL ACTIVITY, THEIR AGRONOMIC COMPOSITIONS AND USE THEREOF” (ISAGRO, S.p.A., priority 2017, published 2021).

What was measured:
wheat seedlings = assay: Phytotoxicity (percentage of leaf necrosis) on wheat seedlings; type: in vivo; settings: for Phytotoxicity % N.F. (leaf necrosis): wheat seedlings, scale 0-100
Procedure: (§1) Leaves of wheat plants of the Salgemma variety, grown in pots in a conditioned environment at 20° C. and 70% of Relative Humidity (RH) were treated by spraying both sides of the leaves with the compound under examination (see Table 4 hereunder) dispersed in a hydroacetonic solution at 20% by volume of acetone.
At the same time, an evaluation of the phytotoxicity was effected (percentage of leaf necrosis) induced on the wheat seedlings by the application of the products: in this case the evaluation scale ranges from 0 (completely healthy plant) to 100 (completely necrotic plant).

bean seedlings = assay: Phytotoxicity (percentage of leaf necrosis) on bean seedlings; type: in vivo; settings: scale 0-100
Procedure: (§2) Bean plants cv. Borlotto of Vigevano, grown in pots in a conditioned environment, were treated by spraying both sides with the products under examination in a hydroacetonic solution with 20% by volume of acetone (vol./vol.).
At the same time, an evaluation of the phytotoxicity was effected (percentage of leaf necrosis) induced on the bean seedlings by the application of the products: in this case the evaluation scale ranges from 0 (completely healthy plant) to 100 (completely necrotic plant).

Uromyces Appendiculatus = assay: Preventive fungicidal activity (5 days) against Uromyces Appendiculatus on beans; type: in vivo
Procedure: Determination of the preventive fungicidal activity (5 days) against Uromyces Appendiculatus on beans.
as §2
After remaining 5 days in a conditioned environment at 23° C. and 70% of relative humidity, the plants were sprayed on the lower side with an aqueous suspension of spores of Uromyces Appendiculatus (200,000 spores/cc); after remaining 24 hours in a humidity-saturated environment, they were re-transferred to the conditioned environment.
After this period, the external symptoms of the pathogen appeared and it was therefore possible to proceed with the visual evaluation of the intensity of the infection.
(§3) The fungicidal activity is expressed as a percentage of the reduction, with respect to non-treated seedlings (comparison), in the area of the leaf affected by the disease (100=full effectiveness; 0=zero effectiveness).

Sphaerotheca Fuliginea = assay: Preventive fungicidal activity (7 days) against Sphaerotheca Fuliginea on cucumbers; type: in vivo
Procedure: Determination of the preventive fungicidal activity (7 days) against Sphaerotheca Fuliginea on cucumbers.
(§4) Cucumber plants cv. Lungo of China, grown in pots in a conditioned environment were treated by spraying both sides with the products under examination in a hydroacetonic solution with 20% by volume of acetone (vol./vol.).
7 days after the treatment, the plants were sprayed on the upper side with an aqueous suspension of spores of Sphaerotheca Fuliginea (200,000 spores/cc); they were then re-transferred to the conditioned environment.
At the end of the period of incubation (8 days), the evaluation of the intensity of the infection was finally effected.
as §3

cucumber seedlings = assay: Phytotoxicity (percentage of leaf necrosis) on cucumber seedlings; type: in vivo; settings: scale 0-100
Procedure: as §4
At the same time, an evaluation of the phytotoxicity was effected (percentage of leaf necrosis) induced on the cucumber seedlings by the application of the products: in this case the evaluation scale ranges from 0 (completely healthy plant) to 100 (completely necrotic plant).

Puccinia Recondita = assay: Preventive fungicidal activity (5 days) against Puccinia Recondita on wheat; type: in vivo; settings: wheat; for Activity P5 NT (reduction of leaf area affected, parts developed during the test): non-treated parts (NT); for effectiveness in containing the disease (in words): summary of Table 4
Procedure: Determination of the preventive fungicidal activity (5 days) against Puccinia Recondita on wheat.
as §1
After remaining 5 days in a conditioned environment, the plants were sprayed on both sides of the leaves with an aqueous suspension of conidia of Puccinia Recondita (2 mg of inoculum per 1 ml of solution for infection).
After spraying, the plants were kept in a humidity-saturated environment at a temperature ranging from 18 to 24° C. for the incubation period of the fungus (1 day).
At the end of this period, the plants were put in a greenhouse with a relative humidity (RH) of 70% and at a temperature of 18-24° C. for 14 days.
At the end of this period, the external symptoms of the pathogen appeared and it was therefore possible to proceed with the visual evaluation of the intensity of the infection, both on the parts treated directly with the products (T) and on the parts developed during the implementation of the test (NT).
as §3

[1] = Accelerated stability test of 5% solutions in commercial solvents (54° C., 2 weeks, HPLC); type: physicochemical
Procedure: Stability tests of the compositions containing compounds having formula (I) in a solvent
In order to evaluate the chemical stability of the compounds having Formula (I) in a solvent, 5% solutions were prepared, containing 250 mg of compounds Nr. 1, 17, 39 and 40, dissolved in 4.75 g of various commercial solvents used for the preparation of emulsifiable concentrates.
The resulting solutions were put in an oven at 54° C. for 2 weeks (according to Cipac MT 46.1 update 2012) and then analyzed by means of HPLC in order to verify the concentration of the active ingredient contained therein. The percentage of degradation of the compound having Formula (I) was therefore obtained, after the accelerated stability test.

Helmintosporium teres = assay: Preventive fungicidal activity (7 days) against Helmintosporium teres on barley; type: in vivo; settings: for Activity P7: 125 ppm, scale 0 (completely infected plant) to 100 (healthy plant)
Procedure: Determination of the preventive fungicidal activity (7 days) against Helmintosporium teres on barley. […] After remaining 7 days in a conditioned environment, the plants were sprayed on both sides of the leaves with an aqueous suspension of conidia of Helmintosporium teres (50,000 conidia/cc+Tween 20-1 drop/100 ml). The plants were then kept in a controlled environment during the incubation period of the fungus (wet room 1 day for infection, 3 days in a cell with 70% of R.H. and at a temperature of […] for the incubation period, 3 days for completion in a wet room, biological cycle 12 days). At the end of this period (12 days), the fungicidal activity was evaluated according to an evaluation percentage scale from 0 (completely infected plant) to 100 (healthy plant).

Parastagonospora nodorum = assay: Preventive activity (7 days) against Parastagonospora nodorum on wheat; type: in vivo; settings: 250 ppm
Procedure: Determination of the preventive activity (7 days) of the compounds having formula (I) against Parastagonospora nodorum on wheat. […] After remaining 48 hours in a humidity-saturated environment, at 21° C., the plants were transferred for the incubation period (10-12 days) to a conditioned environment at 70% of R.H. and at a temperature of 24° C. At the end of this period, the external symptoms of the pathogen appeared and it was therefore possible to proceed with the visual evaluation of the intensity of the infection. The fungicidal activity was expressed as a percentage of the reduction, with respect to non-treated seedlings (comparison), in the area of the leaf affected by the disease (100=full effectiveness; 0=zero effectiveness). Table 7 indicates the results obtained by carrying out the test described with compound Nr. 12, compared with a compound described in WO2008/101682: […]

Compound	Activity P5 (Uromyces Appendiculatus; 30 ppm) [%]	Activity P5 (Uromyces Appendiculatus; 125 ppm) [%]	Activity P5 (Sphaerotheca Fuliginea; 30 ppm) [%]	Activity P5 (Sphaerotheca Fuliginea; 125 ppm) [%]	Phytotoxicity % N.F. (leaf necrosis) (cucumber seedlings; 30 ppm) [% N.F.]	Phytotoxicity % N.F. (leaf necrosis) (cucumber seedlings; 125 ppm) [% N.F.]	Activity P5 NT (reduction of leaf area affected, parts developed during the test) (Puccinia Recondita; 125 ppm) [%]	Activity P5 T (reduction of leaf area affected, parts treated directly) (Puccinia Recondita; 125 ppm) [%]	Activity P5 NT (reduction of leaf area affected, parts developed during the test) (Puccinia Recondita; 250 ppm) [%]	Activity P5 T (reduction of leaf area affected, parts treated directly) (Puccinia Recondita; 250 ppm) [%]	effectiveness in containing the disease (in words) (Puccinia Recondita)	other results
CCN(C)C=Nc1cc(Br)c(SCc2cccc(C(F)(F)F)c2)nc1C [Compound 1, N-ethyl-N-methyl-N′-5bromo-2-methyl-6-{[3-(trifluoromethyl)benzyl]thio}pyridyl-3-formamidine]	90	100	90	100	0	0	75	98	85	100	effective in containing the disease	Phytotoxicity % N.F. (leaf necrosis) (wheat seedlings; 125 ppm): 0 % N.F.; Phytotoxicity % N.F. (leaf necrosis) (wheat seedlings; 250 ppm): 0 % N.F.; symptoms of phytotoxicity on the plant (in words) (wheat seedlings; wheat, summary of Table 4): do not show any symptoms of phytotoxicity; Phytotoxicity % N.F. (leaf necrosis) (bean seedlings; 30 ppm): 0 % N.F.; Phytotoxicity % N.F. (leaf necrosis) (bean seedlings; 125 ppm): 0 % N.F.; percentage of degradation ([1]; solvent ADMA 10 (N,N-dimethyldecanamide)): 1.07%; percentage of degradation ([1]; solvent Alkamuls T/20 (ethoxylated sorbitan monolaurate)): 58.61%; percentage of degradation ([1]; solvent CME (rapeseed methyl ester)): 10.79%; percentage of degradation ([1]; solvent FMPC (N-formylmorpholine and propylene carbonate)): 1.46%; percentage of degradation ([1]; solvent Green 25 (dimethylsulfoxide, acetophenone, 2-ethylhexyl acetate)): 2.07%; percentage of degradation ([1]; solvent Propylene carbonate): 3%; percentage of degradation ([1]; solvent Purasolv BL (butyl lactate)): 100%; percentage of degradation ([1]; solvent RPDE (dimethyl glutarate, dimethyl succinate, dimethyl adipate)): 0.78%
CCN(C)C=Nc1cc(C)c(SCCC(C)C)nc1C [Compound 2]	100	100	99	100	0	2	85	100	95	100	effective in containing the disease	Phytotoxicity % N.F. (leaf necrosis) (wheat seedlings; 125 ppm): 0 % N.F.; Phytotoxicity % N.F. (leaf necrosis) (wheat seedlings; 250 ppm): 0 % N.F.; symptoms of phytotoxicity on the plant (in words) (wheat seedlings; wheat, summary of Table 4): do not show any symptoms of phytotoxicity; Phytotoxicity % N.F. (leaf necrosis) (bean seedlings; 30 ppm): 0 % N.F.; Phytotoxicity % N.F. (leaf necrosis) (bean seedlings; 125 ppm): 0 % N.F.
CCN(C)C=Nc1cc(C)c(SCc2cccc(C(F)(F)F)c2)nc1C [Compound 3, N-ethyl-N-methyl-N′-2,5-dimethyl-6-{[3(trifluoromethyl)benzyl]thio}pyridyl-3-formamidine]	100	100	98	100	1	3	93	100	98	100	effective in containing the disease	symptoms of phytotoxicity on the plant (in words) (wheat seedlings; in vivo): do not show any symptoms of phytotoxicity
CCN(C)C=Nc1cc(Br)c(Sc2ccc(Cl)c(C(F)(F)F)c2)nc1C [Compound 8]												effectiveness on Helmintosporium teres (in words) (Helmintosporium teres): higher effectiveness with respect to the reference compound CR4; Activity P7 (Helmintosporium teres): 30%
N-ethyl-N-methyl-N′-[5-bromo-2-methyl-6-[(1-methyl -2-propoxyethoxy]pyridyl-3-formamidine [CR3]												Activity P7 (Parastagonospora nodorum): 57%
N-ethyl-N-methyl-N′-[5-bromo-2-methyl-6-[(4-chloro-3-trifluoromethyl]phenoxy]pyridyl-3-formamidine [CR4, reference compound]												effectiveness on Helmintosporium teres (in words) (Helmintosporium teres): completely inactive; Activity P7 (Helmintosporium teres): 0%
N-ethyl-N-methyl-N′-[5-bromo-2-methyl-6-[(4-methylpentyloxy]pyridyl-3-formamidine [CR2, reference compound]	80	90	75	85								
